# How the values were obtained:
# potassium arsenate = compound: O=[As]([O-])(O)O.[K+] [potassium arsenate]; assay: thermal stability z-score vs DMSO; higher = more thermally stabilized by treatment; conditions: HeLa; arsenate concentration 1 mM
# Protocol: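 Cellular thermal proteome profiling in HeLa cells treated with 1 mM arsenate for 1 h (DMSO pretreatment), heated to ten temperatures (37-66.3 °C). Soluble protein was quantified by TMT mass spectrometry relative to DMSO controls; the thermal stability score was transformed to a z-score; mean of n = 3 experiments.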
# lipoamide = compound: NC(=O)CCCCC1CCSS1 [lipoamide]; assay: as above; conditions: HeLa, lipoamide concentration 100 µM
# Protocol: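 Cellular thermal proteome profiling in HeLa cells. Cells were treated with 100 µM lipoamide for 1 h, with or without 1 mM arsenate for a further 1 h, then heated to ten temperatures (37-66.3 °C), and soluble protein was quantified by TMT mass spectrometry relative to 0.1% DMSO controls. The thermal stability score (sum of log2 fold changes minus the abundance score) was transformed to a z-score; mean of n = 3 experiments.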
# [1] = arsenate co-treatment: 1 mM arsenate 1 h
# 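Note: each temperature applied for 3 min, abundance score taken as mean log2 fold change at the two lowest temperatures, z-score obtained by mean subtraction and division by SD.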
# Chain of UniProt Q9H9A5 (Q9H9A5 whole entry): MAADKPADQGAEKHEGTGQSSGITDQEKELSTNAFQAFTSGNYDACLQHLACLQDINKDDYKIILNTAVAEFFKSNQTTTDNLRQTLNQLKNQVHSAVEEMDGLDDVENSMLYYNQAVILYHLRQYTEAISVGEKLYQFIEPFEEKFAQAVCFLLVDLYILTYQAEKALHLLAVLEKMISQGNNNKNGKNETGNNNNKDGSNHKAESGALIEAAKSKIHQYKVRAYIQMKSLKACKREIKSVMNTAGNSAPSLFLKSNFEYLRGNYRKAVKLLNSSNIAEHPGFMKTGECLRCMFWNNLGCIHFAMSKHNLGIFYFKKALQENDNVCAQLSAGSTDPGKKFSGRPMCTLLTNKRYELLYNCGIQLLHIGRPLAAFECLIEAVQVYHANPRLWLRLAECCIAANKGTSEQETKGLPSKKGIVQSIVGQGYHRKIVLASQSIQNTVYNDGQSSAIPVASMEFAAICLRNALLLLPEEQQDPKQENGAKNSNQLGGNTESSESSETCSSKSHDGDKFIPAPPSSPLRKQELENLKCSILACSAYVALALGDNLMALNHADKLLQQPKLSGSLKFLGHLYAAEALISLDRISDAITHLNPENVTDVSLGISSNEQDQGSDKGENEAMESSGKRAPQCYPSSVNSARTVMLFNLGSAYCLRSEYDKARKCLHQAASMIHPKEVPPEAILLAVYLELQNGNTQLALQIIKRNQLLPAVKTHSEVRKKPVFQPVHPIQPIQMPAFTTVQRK
# Chain of UniProt Q96BW1 (Q96BW1 whole entry): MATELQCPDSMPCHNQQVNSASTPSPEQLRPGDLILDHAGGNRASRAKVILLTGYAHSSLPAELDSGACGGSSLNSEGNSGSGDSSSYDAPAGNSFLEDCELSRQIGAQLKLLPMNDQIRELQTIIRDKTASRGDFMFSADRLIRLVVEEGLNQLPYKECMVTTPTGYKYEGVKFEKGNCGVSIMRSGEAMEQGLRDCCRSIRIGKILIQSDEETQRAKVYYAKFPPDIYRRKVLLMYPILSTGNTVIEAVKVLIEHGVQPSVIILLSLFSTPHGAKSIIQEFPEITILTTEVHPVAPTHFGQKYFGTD
# Chain of UniProt Q96I99 (Q96I99 whole entry): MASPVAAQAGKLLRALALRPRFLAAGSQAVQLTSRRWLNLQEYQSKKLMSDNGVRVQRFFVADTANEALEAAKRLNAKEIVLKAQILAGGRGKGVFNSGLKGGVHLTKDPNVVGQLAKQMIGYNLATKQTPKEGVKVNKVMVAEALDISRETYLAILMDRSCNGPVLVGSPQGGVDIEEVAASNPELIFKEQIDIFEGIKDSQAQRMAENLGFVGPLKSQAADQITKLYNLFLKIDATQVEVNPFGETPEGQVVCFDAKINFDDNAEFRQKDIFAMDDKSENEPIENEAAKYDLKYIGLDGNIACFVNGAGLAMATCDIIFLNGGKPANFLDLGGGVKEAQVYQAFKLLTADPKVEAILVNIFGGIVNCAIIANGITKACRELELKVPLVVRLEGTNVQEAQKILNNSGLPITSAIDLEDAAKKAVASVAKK
# Chain of UniProt Q14814 (Q14814 whole entry): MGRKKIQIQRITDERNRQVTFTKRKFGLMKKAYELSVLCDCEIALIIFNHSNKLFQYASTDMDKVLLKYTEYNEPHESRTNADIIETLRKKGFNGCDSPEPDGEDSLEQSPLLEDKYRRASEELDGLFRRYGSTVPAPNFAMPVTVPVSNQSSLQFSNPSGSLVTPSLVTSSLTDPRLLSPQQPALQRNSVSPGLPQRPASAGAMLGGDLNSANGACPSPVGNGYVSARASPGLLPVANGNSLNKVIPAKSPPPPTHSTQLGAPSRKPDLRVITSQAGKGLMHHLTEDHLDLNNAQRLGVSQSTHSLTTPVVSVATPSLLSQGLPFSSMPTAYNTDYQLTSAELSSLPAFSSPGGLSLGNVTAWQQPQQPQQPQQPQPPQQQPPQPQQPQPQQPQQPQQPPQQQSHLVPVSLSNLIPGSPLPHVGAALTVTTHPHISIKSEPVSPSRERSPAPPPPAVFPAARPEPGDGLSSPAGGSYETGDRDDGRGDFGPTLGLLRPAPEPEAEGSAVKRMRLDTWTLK
# Chain of UniProt O95251 (O95251 whole entry): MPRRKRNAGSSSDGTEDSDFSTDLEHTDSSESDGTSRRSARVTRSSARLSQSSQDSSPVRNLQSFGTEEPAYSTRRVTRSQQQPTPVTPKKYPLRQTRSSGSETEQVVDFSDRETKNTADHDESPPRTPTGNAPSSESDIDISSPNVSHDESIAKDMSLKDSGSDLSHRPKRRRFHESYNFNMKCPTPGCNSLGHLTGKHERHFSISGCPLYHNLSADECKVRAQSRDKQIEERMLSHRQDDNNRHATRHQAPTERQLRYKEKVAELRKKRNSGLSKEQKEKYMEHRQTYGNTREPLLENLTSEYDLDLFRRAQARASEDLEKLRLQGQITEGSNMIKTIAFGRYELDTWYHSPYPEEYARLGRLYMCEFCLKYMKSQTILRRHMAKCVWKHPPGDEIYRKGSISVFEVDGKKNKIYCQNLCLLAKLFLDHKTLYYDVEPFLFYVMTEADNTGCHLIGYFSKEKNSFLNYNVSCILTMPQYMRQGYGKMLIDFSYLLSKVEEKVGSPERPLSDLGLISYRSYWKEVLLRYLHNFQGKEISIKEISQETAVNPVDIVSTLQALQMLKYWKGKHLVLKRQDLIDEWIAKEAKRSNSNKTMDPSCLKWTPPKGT
# Chain of UniProt Q5JSH3 (Q5JSH3 whole entry): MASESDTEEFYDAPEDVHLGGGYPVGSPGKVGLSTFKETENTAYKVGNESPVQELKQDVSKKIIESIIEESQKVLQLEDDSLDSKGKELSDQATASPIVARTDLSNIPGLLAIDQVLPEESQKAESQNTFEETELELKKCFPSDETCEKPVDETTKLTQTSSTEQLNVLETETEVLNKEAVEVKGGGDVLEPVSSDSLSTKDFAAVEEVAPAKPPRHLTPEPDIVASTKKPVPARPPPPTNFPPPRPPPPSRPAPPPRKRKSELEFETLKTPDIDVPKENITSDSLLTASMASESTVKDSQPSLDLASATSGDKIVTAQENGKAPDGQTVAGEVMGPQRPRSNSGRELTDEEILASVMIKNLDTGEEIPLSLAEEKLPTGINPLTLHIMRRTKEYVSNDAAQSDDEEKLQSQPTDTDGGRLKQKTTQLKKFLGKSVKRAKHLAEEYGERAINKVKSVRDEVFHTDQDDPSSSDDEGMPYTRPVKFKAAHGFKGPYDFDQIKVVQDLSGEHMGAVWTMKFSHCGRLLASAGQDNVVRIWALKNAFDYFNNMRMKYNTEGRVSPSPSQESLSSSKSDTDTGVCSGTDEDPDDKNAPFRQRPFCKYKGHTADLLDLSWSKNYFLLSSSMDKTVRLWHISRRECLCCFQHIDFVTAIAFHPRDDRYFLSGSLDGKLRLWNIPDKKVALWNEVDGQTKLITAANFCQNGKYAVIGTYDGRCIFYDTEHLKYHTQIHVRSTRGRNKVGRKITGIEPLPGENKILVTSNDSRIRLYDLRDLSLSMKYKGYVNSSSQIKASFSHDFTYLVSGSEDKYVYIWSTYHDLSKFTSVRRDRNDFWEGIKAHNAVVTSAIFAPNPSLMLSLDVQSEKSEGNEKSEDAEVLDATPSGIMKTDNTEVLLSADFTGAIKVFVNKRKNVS
# Chain of UniProt O15212 (O15212 whole entry): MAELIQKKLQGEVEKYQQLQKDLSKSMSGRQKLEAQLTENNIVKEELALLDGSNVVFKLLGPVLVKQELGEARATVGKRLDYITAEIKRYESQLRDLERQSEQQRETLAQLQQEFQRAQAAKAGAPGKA
# Chain of UniProt P11177 (P11177 whole entry): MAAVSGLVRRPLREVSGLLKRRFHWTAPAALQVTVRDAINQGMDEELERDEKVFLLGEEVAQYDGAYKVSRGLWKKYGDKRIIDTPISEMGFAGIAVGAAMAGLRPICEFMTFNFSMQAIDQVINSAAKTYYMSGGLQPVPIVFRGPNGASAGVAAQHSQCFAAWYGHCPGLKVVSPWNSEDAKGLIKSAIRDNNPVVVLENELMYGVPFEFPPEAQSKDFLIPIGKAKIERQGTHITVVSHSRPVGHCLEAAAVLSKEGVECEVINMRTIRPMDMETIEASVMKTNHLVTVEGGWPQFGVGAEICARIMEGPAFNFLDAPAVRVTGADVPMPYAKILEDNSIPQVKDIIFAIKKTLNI
# Chain of UniProt Q96IZ0 (Q96IZ0 whole entry): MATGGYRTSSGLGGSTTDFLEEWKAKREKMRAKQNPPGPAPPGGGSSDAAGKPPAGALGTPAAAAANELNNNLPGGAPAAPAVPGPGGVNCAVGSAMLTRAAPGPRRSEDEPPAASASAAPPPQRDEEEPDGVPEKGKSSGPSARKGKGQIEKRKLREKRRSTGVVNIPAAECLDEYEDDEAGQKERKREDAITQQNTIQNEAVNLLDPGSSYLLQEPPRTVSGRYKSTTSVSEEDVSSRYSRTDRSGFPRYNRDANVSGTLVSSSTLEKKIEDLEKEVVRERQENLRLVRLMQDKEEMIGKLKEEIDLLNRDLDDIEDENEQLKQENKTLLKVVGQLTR
# Chain of UniProt P49137 (P49137 whole entry, looked up): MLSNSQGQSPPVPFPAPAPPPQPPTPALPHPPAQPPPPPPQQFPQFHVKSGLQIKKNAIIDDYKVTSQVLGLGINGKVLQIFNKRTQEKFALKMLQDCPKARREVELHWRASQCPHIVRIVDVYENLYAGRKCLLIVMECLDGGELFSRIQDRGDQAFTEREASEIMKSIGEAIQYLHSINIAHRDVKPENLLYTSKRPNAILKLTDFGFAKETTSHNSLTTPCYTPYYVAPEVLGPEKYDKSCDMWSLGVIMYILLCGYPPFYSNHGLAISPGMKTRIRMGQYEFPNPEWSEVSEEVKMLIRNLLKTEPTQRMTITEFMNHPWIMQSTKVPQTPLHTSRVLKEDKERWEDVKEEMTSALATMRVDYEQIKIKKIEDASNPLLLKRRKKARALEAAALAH
# Chain of UniProt Q9Y6G5 (Q9Y6G5 whole entry): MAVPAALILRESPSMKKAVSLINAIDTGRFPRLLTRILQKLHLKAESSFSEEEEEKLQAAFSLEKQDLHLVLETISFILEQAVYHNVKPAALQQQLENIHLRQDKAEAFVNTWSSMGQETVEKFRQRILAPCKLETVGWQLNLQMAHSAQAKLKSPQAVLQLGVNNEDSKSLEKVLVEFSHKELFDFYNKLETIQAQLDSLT
Target,thermal stability z-score (potassium arsenate),thermal stability z-score (lipoamide; [1]),thermal stability z-score (lipoamide; arsenate co-treatment: none)
TBC1D13 (UniProt Q9NVG8),-0.494,0.33,0.109
PEX14 (UniProt O75381),-0.269,-0.54,-0.596
DNM1L (UniProt O00429),0.237,-0.508,0.234
PATL1 (UniProt Q86TB9),-0.0875,-0.613,-0.623
PAWR (UniProt Q96IZ0),0.349,0.873,0.657
MEF2D (UniProt Q14814),0.288,0.00357,0.197
RRAS (UniProt P10301),0.844,0.632,0.351
GANAB (UniProt Q14697),0.696,-3.91,-3.13
MEMO1 (UniProt Q9Y316),0.0822,0.326,0.0877
DFFA (UniProt O00273),0.443,0.376,0.555
PPP4R2 (UniProt Q9NY27),-0.136,-0.326,0.221
ESPL1 (UniProt Q14674),1.94,0.424,-0.509
MKRN1 (UniProt Q9UHC7),-0.138,-0.0831,-0.0834
SNAP29 (UniProt O95721),0.554,-0.254,0.547
TBCB (UniProt Q99426),-1.55,0.475,-0.253
CNOT10 (UniProt Q9H9A5),0.677,-0.532,0.228
TRAPPC3 (UniProt O43617),0.422,0.589,-0.0881
MESDC2 (UniProt Q14696),0.346,-1.36,-1.28
TEFM (UniProt Q96QE5),0.106,0.0966,0.0631
SYAP1 (UniProt Q96A49),0.679,0.0475,-0.0361
CCDC25 (UniProt Q86WR0),0.439,0.415,0.668
TELO2 (UniProt Q9Y4R8),0.208,-0.413,-0.306
PSMF1 (UniProt Q92530),-0.0444,-0.319,-0.0828
WDR44 (UniProt Q5JSH3),0.635,0.411,0.42
CHCHD6 (UniProt Q9BRQ6),-0.66,0.209,0.536
SLC4A7 (UniProt Q9Y6M7),-0.747,-0.0849,0.00104
TUBGCP2 (UniProt Q9BSJ2),0.27,-0.0736,-0.0416
AIMP2 (UniProt Q13155),0.702,-0.616,-0.263

Target,thermal stability z-score (potassium arsenate),thermal stability z-score (lipoamide; [1]),thermal stability z-score (lipoamide; arsenate co-treatment: none)
LYN (UniProt P07948),-0.89,0.264,0.362
MAPKAPK2 (UniProt P49137),0.48,0.451,0.459
COX7B (UniProt P24311),-0.0702,-0.0929,-0.0319
NOC2L (UniProt Q9Y3T9),0.0133,0.154,0.208
FAM20B (UniProt O75063),0.335,-1.35,-1.05
UPRT (UniProt Q96BW1),0.289,-0.0247,-0.292
RPUSD4 (UniProt Q96CM3),-0.998,-0.196,-1.67
KAT7 (UniProt O95251),-0.144,0.116,-0.0536
COMMD10 (UniProt Q9Y6G5),0.307,0.107,0.18
DROSHA (UniProt Q9NRR4),0.141,-0.124,-0.127
PFDN6 (UniProt O15212),1.42,1.95,2.18
SIRT1 (UniProt Q96EB6),-0.922,-0.368,-0.379
FLJ13984|METTL8,0.187,-0.0305,-0.13
PEX13 (UniProt Q92968),0.284,0.444,0.834
FANCA (UniProt O15360),-0.103,-0.0907,-0.00129
PIK3R2 (UniProt O00459),-0.17,-0.263,0.416
LDHA (UniProt P00338),-0.436,0.685,0.577
BMP2K (UniProt Q9NSY1),0.122,-0.986,-0.217
UQCC1 (UniProt Q9NVA1),1.5,0.493,0.855
COQ5 (UniProt Q5HYK3),1.52,0.471,0.639
PDHB (UniProt P11177),-2.38,0.134,0.282
DBI (UniProt P07108),-0.228,1.09,0.274
VPS45 (UniProt Q9NRW7),0.0668,0.546,0.434
PLEKHO2 (UniProt Q8TD55),-0.257,0.146,0.015
SUCLG2 (UniProt Q96I99),0.106,0.0359,0.172
ZFAND6 (UniProt Q6FIF0),-0.0508,0.56,0.219
DDX46 (UniProt Q7L014),-1.2,0.411,0.501

# From the supplement of paper PMC12463676, “Small-molecule dissolution of stress granules by redox modulation benefits ALS models” (Nature Chemical Biology, 2025)
